Assay results taken from patent publication US20250353873A1, “COMPOUNDS AND METHODS FOR MODULATING APOE EXPRESSION” (Ionis Pharmaceuticals, Inc., priority 2024, published 2025).
Marks after values point to notes of the source that are not given here. Strand notation (5' to 3'): a small letter for the sugar, then the base; units joined by * are phosphorothioate-linked, units joined directly phosphodiester-linked; [ ] holds rarer units or linkages, { } end groups; capitals alone tell only the bases. [ms] = mesyl phosphoramidate linkage; k = constrained ethyl (cEt); [5mC] = 5-methylcytosine; d = 2'-deoxy (DNA)

How the values were obtained:
human APOE RNA [1] = test: Duration of action study in APOE C57BL/6NTac-Apoeem7250 knock-in mice (Example 16); type: in vivo; settings: 300 μg ICV
Procedure, shortened: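 Knock-in mice (2-4 per group) received a single ICV bolus of 300 μg oligonucleotide or PBS. At various timepoints, cortex and spinal cord human APOE RNA was measured by RT-qPCR (RTS3073), normalized to mouse Ppia and expressed as % of PBS control.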

human APOE RNA [2] = test: Potency (dose response, ED50) in APOE C57BL/6NTac-Apoeem7250 knock-in mice, 8 weeks (Example 15); type: in vivo
Method: Modified oligonucleotides described above were tested in the APOE C57BL/6NTac-Apoeem7250 knock-in mouse model described above.
APOE C57BL/6NTac-Apoeem7250 knock-in mice were divided into groups of 3-4 mice each. A group of 4 mice received a single ICV bolus with PBS as a negative control.
Eight weeks post treatment, mice were sacrificed, and RNA was extracted from cortical brain tissue and spinal cord for quantitative real-time RT-PCR analysis of RNA expression of […] using human primer probe set RTS3073 (described herein above). APOE RNA levels were normalized to mouse Ppia. Mouse Ppia was amplified using primer probe set m_cyclo24 (described herein above). Results are presented as percent human APOE RNA relative to the amount of APOE RNA in PBS treated animals, (% control). N.C. indicates values that were not calculated.
The half maximal effective dose (ED50) of each modified oligonucleotide was calculated using GraphPad Prism 10 software (GraphPad Software, San Diego, CA).

human APOE RNA [3] = test: Duration of action study in APOE C57BL/6NTac-Apoeem7250 knock-in mice (Example 18); type: in vivo; settings: single ICV bolus 300 μg, APOE knock-in mice, normalized to mouse Ppia, relative to PBS
Method: Modified oligonucleotides described above were tested in the APOE C57BL/6NTac-Apoeem7250 knock-in model (described above).
Each mouse received a single intracerebroventricular (ICV) bolus of 300 μg of modified oligonucleotide. A group of 4-6 mice received a single ICV bolus with PBS as a negative control.
Mice were sacrificed at various timepoints as indicated in the table below and RNA was extracted from cortical brain tissue and spinal cord for quantitative real-time RT-PCR analysis of RNA expression of APOE using primer probe set RTS3073 (described herein above). APOE RNA levels were normalized to mouse Ppia. Mouse Ppia was amplified using primer probe set m_cyclo24 (described herein above). Results are presented as percent human APOE RNA relative to the amount of human APOE RNA in PBS treated animals, (% control). Each experiment is identified in separate tables below.

human APOE RNA [4] = test: Activity in APOE C57BL/6NTac-Apoeem7250 knock-in mice, single ICV bolus, 16 weeks (Example 12); type: in vivo; settings: single ICV bolus 300 μg, 16 weeks post treatment, normalized to mouse Ppia
Procedure, shortened: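 A single 300 μg intracerebroventricular dose was given, with PBS-treated mice as reference; cortical and spinal cord tissue was taken 16 weeks later. RT-qPCR quantified human APOE RNA, Ppia-normalized, expressed relative to PBS animals (% control).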

human APOE RNA [5] = test: Dose-dependent inhibition of human APOE RNA in HepG2 cells, electroporation, 50,000 cells per well, RT-PCR normalized to GAPDH (Example 4, Tables 8-10); type: cell-based; settings: HepG2 cells, electroporation, Table 8
Procedure, shortened: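 Readout is percent APOE RNA versus untreated controls, measured by RT-PCR (primer probe set RTS3073) and normalized to human GAPDH. Modified oligonucleotides were delivered by electroporation at varying doses into HepG2 cells plated at 50,000 per well.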

human APOE RNA [6] = test: Activity in APOE C57BL/6NTac-Apoeem7250 knock-in mice, single ICV bolus, 20 weeks (Example 13); type: in vivo; settings: single ICV bolus 300 μg, 20 weeks post treatment, normalized to mouse Ppia
Procedure, shortened: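 Cortical and spinal cord RNA was assayed by real-time RT-PCR for human APOE, normalized to mouse Ppia and reported as percent of PBS controls. Tissue was taken twenty weeks after one 300 μg intracerebroventricular bolus in APOE knock-in mice, 4 per group.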

## ^mCksTksTksGdzGdzTdzGdzAdzAdzTds^mCdsTdsTdsTdsAdsTdsTksAksAdzAk (antisense k[5mC]*kT*kT*dG[ms]dG[ms]dT[ms]dG[ms]dA[ms]dA[ms]dT*d[5mC]*dT*dT*dT*dA*dT*kT*kA*dA[ms]kA) [Compound No. 1785602]
Human APOE RNA [1]; 7 days post-dose
  APOE RNA (% control) Cortex: 40 % control
  APOE RNA (% control) Spinal Cord: 56 % control
Human APOE RNA [1]; 14 days post-dose
  APOE RNA (% control) Cortex: 30 % control
  APOE RNA (% control) Spinal Cord: 28 % control
Human APOE RNA [2]; cortex, ICV dose 10 μg
  APOE RNA (% control) Cortex: 95 % control
Human APOE RNA [2]; cortex, ICV dose 30 μg
  APOE RNA (% control) Cortex: 90 % control
Human APOE RNA [2]; cortex, ICV dose 100 μg
  APOE RNA (% control) Cortex: 57 % control
Human APOE RNA [2]; cortex, ICV dose 300 μg
  APOE RNA (% control) Cortex: 31 % control
Human APOE RNA [2]; cortex, ICV dose 700 μg
  APOE RNA (% control) Cortex: 21 % control
Human APOE RNA [2]; cortex, single ICV bolus, GraphPad Prism 10
  ED 50 (μg) Cortex: 153.2 µg
Human APOE RNA [2]; spinal cord, ICV dose 10 μg
  APOE RNA (% control) Spinal Cord: 73 % control
Human APOE RNA [2]; spinal cord, ICV dose 30 μg
  APOE RNA (% control) Spinal Cord: 40 % control
Human APOE RNA [2]; spinal cord, ICV dose 100 μg
  APOE RNA (% control) Spinal Cord: 26 % control
Human APOE RNA [2]; spinal cord, ICV dose 300 μg
  APOE RNA (% control) Spinal Cord: 20 % control
Human APOE RNA [2]; spinal cord, ICV dose 700 μg
  APOE RNA (% control) Spinal Cord: 22 % control
Human APOE RNA [2]; spinal cord, single ICV bolus, GraphPad Prism 10
  ED 50 (μg) Spinal Cord: 26.9 µg
Human APOE RNA [3]; 196 days post-dose
  APOE RNA (% control) Cortex: 56 % control
  APOE RNA (% control) Spinal Cord: 34 % control
Human APOE RNA [3]; 224 days post-dose
  APOE RNA (% control) Cortex: 79 % control
  APOE RNA (% control) Spinal Cord: 56 % control
Human APOE RNA [3]; 285 days post-dose
  APOE RNA (% control) Cortex: 84† % control
  APOE RNA (% control) Spinal Cord: 72† % control
Human APOE RNA [4]; cortex
  APOE RNA (% control) Cortex: 38 % control
Human APOE RNA [4]; spinal cord
  APOE RNA (% control) Spinal Cord: 20 % control
Human APOE RNA [5]; 24-hour treatment, 5 nM
  APOE RNA (% UTC) 5 nM: 96 % UTC
Human APOE RNA [5]; 24-hour treatment, 13 nM
  APOE RNA (% UTC) 13 nM: 109 % UTC
Human APOE RNA [5]; 24-hour treatment, 33 nM
  APOE RNA (% UTC) 33 nM: 83 % UTC
Human APOE RNA [5]; 24-hour treatment, 82 nM
  APOE RNA (% UTC) 82 nM: 64 % UTC
Human APOE RNA [5]; 24-hour treatment, 205 nM
  APOE RNA (% UTC) 205 nM: 55 % UTC
Human APOE RNA [5]; 24-hour treatment, 512 nM
  APOE RNA (% UTC) 512 nM: 27 % UTC
Human APOE RNA [5]; 24-hour treatment, 1,280 nM
  APOE RNA (% UTC) 1,280 nM: 18 % UTC
Human APOE RNA [5]; 24-hour treatment, 3,200 nM
  APOE RNA (% UTC) 3,200 nM: 11 % UTC
Human APOE RNA [5]; 24-hour treatment, 8,000 nM
  APOE RNA (% UTC) 8,000 nM: 8 % UTC
Human APOE RNA [5]; 24-hour treatment, 20,000 nM
  APOE RNA (% UTC) 20,000 nM: 4 % UTC
Human APOE RNA [5]; reduction of human APOE RNA, 24-hour treatment
  IC50: 0.22 µM
Human APOE RNA [6]; cortex
  APOE RNA (% control) Cortex: 53 % control
Human APOE RNA [6]; spinal cord
  APOE RNA (% control) Spinal Cord: 28 % control
